Target: HSD17B13 (Homo sapiens (Human), UniProt Q7Z5P4)
Assay: HSD17B13 enzymatic inhibition assay (150 nM or 50 nM HSD17B13)
Assay type: biochemical
Conditions: 50 nM HSD17B13; read-out: Inhibition of 50 nM of HSD17B13 IC50

Sequence of HSD17B13 (Q7Z5P4 other isoform, or with tags, fused parts or gaps): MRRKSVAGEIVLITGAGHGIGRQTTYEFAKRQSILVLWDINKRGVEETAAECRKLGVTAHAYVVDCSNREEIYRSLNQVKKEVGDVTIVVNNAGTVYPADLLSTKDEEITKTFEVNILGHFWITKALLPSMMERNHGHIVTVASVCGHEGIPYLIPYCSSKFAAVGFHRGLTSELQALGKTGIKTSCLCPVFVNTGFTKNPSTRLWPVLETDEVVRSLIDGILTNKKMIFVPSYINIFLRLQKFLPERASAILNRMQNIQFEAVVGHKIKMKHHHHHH

| SMILES | IC50 [nM] |
| --- | --- |
| C=Cc1cc(C(=O)NC2c3ccc(C)cc3Oc3cccc(C)c32)c(=O)[nH]c1C(F)(F)F (centres unmarked) [Compound 168, N-(1,6-dimethyl-9H-xanthen-9-yl)-2-oxo-6-(trifluoromethyl)-5-vinyl-1,2-dihydropyridine-3-carboxamide] | 330 |
| C=Cc1cc(C(=O)NC2c3ccc(Cl)cc3Oc3cccc(Cl)c32)c(=O)[nH]c1C(F)(F)F (centres unmarked) [Compound 170, N-(1,6-dichloro-9H-xanthen-9-yl)-2-oxo-6-(trifluoromethyl)-5-vinyl-1,2-dihydropyridine-3-carboxamide] | 350 |
| CCc1cc(C(=O)NC2c3ccc(Cl)cc3Oc3cc(Cl)ccc32)c(=O)[nH]c1C(F)(F)F [Compound 172, N-(3,6-dichloro-9H-xanthen-9-yl)-5-ethyl-2-oxo-6-(trifluoromethyl)-1,2-dihydropyridine-3-carboxamide] | 140 |
| C=CCc1cc(C(=O)NC2c3ccc(Cl)cc3Oc3cc(Cl)ccc32)c(=O)[nH]c1C(F)(F)F [Compound 173, 5-allyl-N-(3,6-dichloro-9H-xanthen-9-yl)-2-oxo-6-(trifluoromethyl)-1,2-dihydropyridine-3-carboxamide] | 30 |
| Cc1ccc2c(c1)Oc1cccc(C)c1C2NC(=O)c1cc(-c2ccccc2)c(C(F)(F)F)[nH]c1=O (centres unmarked) [Compound 175, N-(1,6-dimethyl-9H-xanthen-9-yl)-2-oxo-5-phenyl-6-(trifluoromethyl)-1,2-dihydropyridine-3-carboxamide] | 280 |
| C=CCc1cc(C(=O)NC2c3ccc(C)cc3Oc3cccc(C)c32)c(=O)[nH]c1C(F)(F)F (centres unmarked) [Compound 180, 5-allyl-N-(1,6-dimethyl-9H-xanthen-9-yl)-2-oxo-6-(trifluoromethyl)-1,2-dihydropyridine-3-carboxamide] | 160 |
| CCCc1cc(C(=O)NC2c3ccc(C)cc3Oc3cccc(C)c32)c(=O)[nH]c1C(F)(F)F (centres unmarked) [Compound 181, N-(1,6-dimethyl-9H-xanthen-9-yl)-2-oxo-5-propyl-6-(trifluoromethyl)-1,2-dihydropyridine-3-carboxamide] | 390 |
| Cc1ccc2c(c1)Oc1cccc(C)c1C2NC(=O)c1cc(CCc2ccccc2)c(C(F)(F)F)[nH]c1=O (centres unmarked) [Compound 184, N-(1,6-dimethyl-9H-xanthen-9-yl)-2-oxo-5-phenethyl-6-(trifluoromethyl)-1,2-dihydropyridine-3-carboxamide] | 150 |
| Cc1ccc2c(c1)Oc1cccc(C)c1C2NC(=O)c1cc(CO)c(C(F)(F)F)[nH]c1=O (centres unmarked) [Compound 185, N-(1,6-dimethyl-9H-xanthen-9-yl)-5-(hydroxymethyl)-2-oxo-6-(trifluoromethyl)-1,2-dihydropyridine-3-carboxamide] | 730 |
| Cc1ccc2c(c1)Oc1cccc(C)c1C2NC(=O)c1cc(C2CCCCC2)c(C(F)(F)F)[nH]c1=O (centres unmarked) [Compound 186, 5-cyclohexyl-N-(1,6-dimethyl-9H-xanthen-9-yl)-2-oxo-6-(trifluoromethyl)-1,2-dihydropyridine-3-carboxamide] | 1830 |
| Cc1ccc2c(c1)Oc1cccc(C)c1C2NC(=O)c1cc(C2=CCOCC2)c(C(F)(F)F)[nH]c1=O (centres unmarked) [Compound 188, 5-(3,6-dihydro-2H-pyran-4-yl)-N-(1,6-dimethyl-9H-xanthen-9-yl)-2-oxo-6-(trifluoromethyl)-1,2-dihydropyridine-3-carboxamide] | 280 |
| Cc1ccc2c(c1)Oc1cc(C)ccc1C2NC(=O)c1cc(Br)c(C(F)(F)F)[nH]c1=O [Compound 189, 5-bromo-N-(3,6-dimethyl-9H-xanthen-9-yl)-2-oxo-6-(trifluoromethyl)-1,2-dihydropyridine-3-carboxamide] | 70 |
| O=C(NC1c2ccc(Cl)cc2Oc2cccc(Cl)c21)c1cnc(C(F)(F)F)[nH]c1=O (centres unmarked) [Compound 191, N-(1,6-dichloro-9H-xanthen-9-yl)-6-oxo-2-(trifluoromethyl)-1,6-dihydropyrimidine-5-carboxamide] | 870 |
| Cc1cc(C(F)(F)F)[nH]c(=O)c1C(=O)NC1c2ccccc2Oc2ccccc21 [Compound 195, 4-methyl-2-oxo-6-(trifluoromethyl)-N-(9H-xanthen-9-yl)-1,2-dihydropyridine-3-carboxamide] | 3310 |
| COc1ccc2c(c1)Oc1ccccc1C2NC(=O)c1ccc(C(F)(F)F)[nH]c1=O (centres unmarked) [Compound 197, N-(3-methoxy-9H-xanthen-9-yl)-2-oxo-6-(trifluoromethyl)-1,2-dihydropyridine-3-carboxamide] | 1130 |
| Cc1ccc2c(c1)Oc1cccc(C)c1C2NC(=O)c1c(C)cc(C(F)(F)F)[nH]c1=O (centres unmarked) [Compound 199, N-(1,6-dimethyl-9H-xanthen-9-yl)-4-methyl-2-oxo-6-(trifluoromethyl)-1,2-dihydropyridine-3-carboxamide] | 5150 |
| Cc1cc(C(F)(F)F)[nH]c(=O)c1C(=O)NC1c2ccc(Cl)cc2Oc2cccc(Cl)c21 (centres unmarked) [Compound 200, N-(1,6-dichloro-9H-xanthen-9-yl)-4-methyl-2-oxo-6-(trifluoromethyl)-1,2-dihydropyridine-3-carboxamide] | > 10000 |
| Cc1ccc2c(c1)Oc1cc(C)ccc1C2NC(=O)c1c(C)cc(C(F)(F)F)[nH]c1=O [Compound 202, N-(3,6-dimethyl-9H-xanthen-9-yl)-4-methyl-2-oxo-6-(trifluoromethyl)-1,2-dihydropyridine-3-carboxamide] | 350 |
| CCc1cc(C(F)(F)F)[nH]c(=O)c1C(=O)NC1c2ccc(C)cc2Oc2cccc(C)c21 (centres unmarked) [Compound 204, N-(1,6-dimethyl-9H-xanthen-9-yl)-4-ethyl-2-oxo-6-(trifluoromethyl)-1,2-dihydropyridine-3-carboxamide] | > 10000 |
| CCc1cc(C(F)(F)F)[nH]c(=O)c1C(=O)NC1c2ccc(Cl)cc2Oc2cc(Cl)ccc21 [Compound 206, N-(3,6-dichloro-9H-xanthen-9-yl)-4-ethyl-2-oxo-6-(trifluoromethyl)-1,2-dihydropyridine-3-carboxamide] | 290 |
| CCCc1cc(C(F)(F)F)[nH]c(=O)c1C(=O)NC1c2ccc(C)cc2Oc2cc(C)ccc21 [Compound 207, N-(3,6-dimethyl-9H-xanthen-9-yl)-2-oxo-4-propyl-6-(trifluoromethyl)-1,2-dihydropyridine-3-carboxamide] | 180 |
| CCCc1cc(C(F)(F)F)[nH]c(=O)c1C(=O)NC1c2ccc(C)cc2Oc2cccc(C)c21 (centres unmarked) [Compound 208, N-(1,6-dimethyl-9H-xanthen-9-yl)-2-oxo-4-propyl-6-(trifluoromethyl)-1,2-dihydropyridine-3-carboxamide] | > 10000 |

The remaining lines, values ahead:

| IC50 [nM] | SMILES |
| --- | --- |
| 780 | CCc1cc(C(=O)NC2c3ccc(Cl)cc3Oc3cccc(Cl)c32)c(=O)[nH]c1C(F)(F)F (centres unmarked) [Compound 169, N-(1,6-dichloro-9H-xanthen-9-yl)-5-ethyl-2-oxo-6-(trifluoromethyl)-1,2-dihydropyridine-3-carboxamide] |
| 100 | C=Cc1cc(C(=O)NC2c3ccc(Cl)cc3Oc3cc(Cl)ccc32)c(=O)[nH]c1C(F)(F)F [Compound 171, N-(3,6-dichloro-9H-xanthen-9-yl)-2-oxo-6-(trifluoromethyl)-5-vinyl-1,2-dihydropyridine-3-carboxamide] |
| 240 | C=CCc1cc(C(=O)NC2c3ccc(Cl)cc3Oc3cccc(Cl)c32)c(=O)[nH]c1C(F)(F)F (centres unmarked) [Compound 174, 5-allyl-N-(1,6-dichloro-9H-xanthen-9-yl)-2-oxo-6-(trifluoromethyl)-1,2-dihydropyridine-3-carboxamide] |
| 400 | CCCc1cc(C(=O)NC2c3ccc(Cl)cc3Oc3cccc(Cl)c32)c(=O)[nH]c1C(F)(F)F (centres unmarked) [Compound 179, N-(1,6-dichloro-9H-xanthen-9-yl)-2-oxo-5-propyl-6-(trifluoromethyl)-1,2-dihydropyridine-3-carboxamide] |
| 770 | Cc1ccc2c(c1)Oc1cccc(C)c1C2NC(=O)c1cc(C2=CCCCC2)c(C(F)(F)F)[nH]c1=O (centres unmarked) [Compound 187, 5-(cyclohex-1-en-1-yl)-N-(1,6-dimethyl-9H-xanthen-9-yl)-2-oxo-6-(trifluoromethyl)-1,2-dihydropyridine-3-carboxamide] |
| 230 | O=C(NC1c2ccc(Cl)cc2Oc2cc(Cl)ccc21)c1cnc(C(F)(F)F)[nH]c1=O [Compound 192, N-(3,6-dichloro-9H-xanthen-9-yl)-6-oxo-2-(trifluoromethyl)-1,6-dihydropyrimidine-5-carboxamide] |
| 1020 | Cc1ccc2c(c1)Oc1cccc(C)c1C2NC(=O)c1cnc(C(F)(F)F)[nH]c1=O (centres unmarked) [Compound 193, N-(1,6-dimethyl-9H-xanthen-9-yl)-6-oxo-2-(trifluoromethyl)-1,6-dihydropyrimidine-5-carboxamide] |
| 630 | Cc1cc(C(F)(F)F)[nH]c(=O)c1C(=O)NC1c2ccccc2Oc2cc(Cl)ccc21 (centres unmarked) [Compound 196, N-(3-chloro-9H-xanthen-9-yl)-4-methyl-2-oxo-6-(trifluoromethyl)-1,2-dihydropyridine-3-carboxamide] |
| 430 | CCc1cc(C(F)(F)F)[nH]c(=O)c1C(=O)NC1c2ccc(C)cc2Oc2cc(C)ccc21 [Compound 201, N-(3,6-dimethyl-9H-xanthen-9-yl)-4-ethyl-2-oxo-6-(trifluoromethyl)-1,2-dihydropyridine-3-carboxamide] |
| 1050 | Cc1cc(C(F)(F)F)[nH]c(=O)c1C(=O)NC1c2ccc(Cl)cc2Oc2cc(Cl)ccc21 [Compound 203, N-(3,6-dichloro-9H-xanthen-9-yl)-4-methyl-2-oxo-6-(trifluoromethyl)-1,2-dihydropyridine-3-carboxamide] |
| > 10000 | CCc1cc(C(F)(F)F)[nH]c(=O)c1C(=O)NC1c2ccc(Cl)cc2Oc2cccc(Cl)c21 (centres unmarked) [Compound 205, N-(1,6-dichloro-9H-xanthen-9-yl)-4-ethyl-2-oxo-6-(trifluoromethyl)-1,2-dihydropyridine-3-carboxamide] |
| 3440 | CCCc1cc(C(F)(F)F)[nH]c(=O)c1C(=O)NC1c2ccc(Cl)cc2Oc2cccc(Cl)c21 (centres unmarked) [Compound 209, N-(1,6-dichloro-9H-xanthen-9-yl)-2-oxo-4-propyl-6-(trifluoromethyl)-1,2-dihydropyridine-3-carboxamide] |
| 930 | CCCc1cc(C(F)(F)F)[nH]c(=O)c1C(=O)NC1c2ccc(Cl)cc2Oc2cc(Cl)ccc21 [Compound 210, N-(3,6-dichloro-9H-xanthen-9-yl)-2-oxo-4-propyl-6-(trifluoromethyl)-1,2-dihydropyridine-3-carboxamide] |
